Measurements reported in patent US10004701B2, “Methods and compositions for treating infection” (UNIVERSITY OF ROCHESTER, priority 2012, dated 2018).
Structures can show the parent of a compound that is named as a salt. Where two headings read alike, the source gives them in different places.

Experiments:
Assay in all cases: AK assay 384-well format, Prestwick library screening
E. faecium = assay type: cell-based, Enterococcus faecium; details: 50 μM final drug concentration; for fold induction at 50 µM: Enterococcus faecium, 3 h
[1] = test system: A. baumannii strain 98-37-09; assay type: cell-based, Acinetobacter baumannii; details: 50 μM final drug concentration; for fold induction at 50 µM: Acinetobacter baumannii, 983709, 3 h
E. cloacae = assay type: cell-based, Enterobacter cloacae; details: 50 μM final drug concentration; for fold induction at 50 µM: Enterobacter cloacae, 3 h
E. coli = assay type: cell-based, Escherichia coli; details: 50 μM final drug concentration; for fold induction at 50 µM: Escherichia coli, 3 h
K. pneumoniae = assay type: cell-based, Klebsiella pneumoniae; details: 50 μM final drug concentration; for fold induction at 50 µM: Klebsiella pneumoniae, 3 h
P. aeruginosa = assay type: cell-based, Pseudomonas aeruginosa; details: 50 μM final drug concentration; for fold induction at 50 µM: Pseudomonas aeruginosa, 3 h
[2] = test system: S. aureus strain USA300-0114; assay type: cell-based, Staphylococcus aureus; details: 50 μM final drug concentration; for fold induction at 50 µM: Staphylococcus aureus, USA300, 3 h
[3] = cutoff for positive-scoring molecules 3-fold increase
[4] = planktonic E. faecium, cutoff for positive-scoring molecules 3-fold increase, read-out: AK-based Prestwick Library Screening Results, E. faecium (increase in extracellular AK activity)
[5] = planktonic A. baumannii, cutoff for positive-scoring molecules 3-fold increase, read-out: AK-based Prestwick Library Screening Results, A. baumannii (increase in extracellular AK activity)
[6] = planktonic E. cloacae, cutoff for positive-scoring molecules 3-fold increase, read-out: AK-based Prestwick Library Screening Results, E. cloacae (increase in extracellular AK activity)
[7] = planktonic E. coli, […], read-out: AK-based Prestwick Library Screening Results, E. coli (increase in extracellular AK activity)
[8] = planktonic K. pneumoniae, cutoff for positive-scoring molecules 3-fold increase, read-out: AK-based Prestwick Library Screening Results, K. pneumoniae (increase in extracellular AK activity)
[9] = planktonic P. aeruginosa, cutoff for positive-scoring molecules 3-fold increase, read-out: AK-based Prestwick Library Screening Results, P. aeruginosa (increase in extracellular AK activity)
[10] = planktonic S. aureus, cutoff for positive-scoring molecules 3-fold increase, read-out: AK-based Prestwick Library Screening Results, S. aureus (increase in extracellular AK activity)
[11] = planktonic, cutoff for positive 3-fold increase, read-out: AK-based Prestwick Library Screening Results, E. faecium (fold increase in extracellular AK activity)
[12] = planktonic, cutoff for positive 3-fold increase, read-out: AK-based Prestwick Library Screening Results, A. baumannii (fold increase in extracellular AK activity)
[13] = planktonic, cutoff for positive 3-fold increase, read-out: AK-based Prestwick Library Screening Results, E. cloacae (fold increase in extracellular AK activity)
[14] = planktonic, cutoff for positive 3-fold increase, read-out: AK-based Prestwick Library Screening Results, E. coli (fold increase in extracellular AK activity)
[15] = planktonic, cutoff for positive 3-fold increase, read-out: AK-based Prestwick Library Screening Results, K. pneumoniae (fold increase in extracellular AK activity)
[16] = planktonic, cutoff for positive 3-fold increase, read-out: AK-based Prestwick Library Screening Results, P. aeruginosa (fold increase in extracellular AK activity)
[17] = planktonic, cutoff for positive 3-fold increase, read-out: AK-based Prestwick Library Screening Results, S. aureus (fold increase in extracellular AK activity)
[18] = planktonic E. faecium, positive cutoff 3-fold increase, read-out: AK-based Prestwick library screening result, E. faecium (fold increase in extracellular AK activity)
[19] = planktonic A. baumannii, positive cutoff 3-fold increase, read-out: AK-based Prestwick library screening result, A. baumannii (fold increase in extracellular AK activity)
[20] = planktonic E. cloacae, positive cutoff 3-fold increase, read-out: AK-based Prestwick library screening result, E. cloacae (fold increase in extracellular AK activity)
[21] = planktonic E. coli, positive cutoff 3-fold increase, read-out: AK-based Prestwick library screening result, E. coli (fold increase in extracellular AK activity)
[22] = planktonic K. pneumoniae, positive cutoff 3-fold increase, read-out: AK-based Prestwick library screening result, K. pneumoniae (fold increase in extracellular AK activity)
[23] = planktonic P. aeruginosa, positive cutoff 3-fold increase, read-out: AK-based Prestwick library screening result, P. aeruginosa (fold increase in extracellular AK activity)
[24] = planktonic S. aureus, positive cutoff 3-fold increase, read-out: AK-based Prestwick library screening result, S. aureus (fold increase in extracellular AK activity)
[25] = planktonic E. coli, cutoff for positive-scoring molecules 3-fold increase, read-out: AK-based Prestwick Library Screening Results, E. coli (increase in extracellular AK activity)
[26] = planktonic, cutoff for positive 3-fold increase

C#C[C@]1(O)CC[C@H]2[C@@H]3CCc4cc(OC)ccc4[C@H]3CC[C@@]21C [Ethynylestradiol 3-methyl ether]
AK-based Prestwick Library Screening Results, E. faecium (fold increase in extracellular AK activity) (E. faecium; [3]): 0.9 | AK-based Prestwick Library Screening Results, A. baumannii (fold increase in extracellular AK activity) [1, 3]: 1.1 | AK-based Prestwick Library Screening Results, E. cloacae (fold increase in extracellular AK activity) (E. cloacae; [3]): 1.5 | AK-based Prestwick Library Screening Results, E. coli (fold increase in extracellular AK activity) (E. coli; [3]): 1.2 | AK-based Prestwick Library Screening Results, K. pneumoniae (fold increase in extracellular AK activity) (K. pneumoniae; [3]): 0.8 | AK-based Prestwick Library Screening Results, P. aeruginosa (fold increase in extracellular AK activity) (P. aeruginosa; [3]): 1.1 | AK-based Prestwick Library Screening Results, S. aureus (fold increase in extracellular AK activity) [2, 3]: 0.8

C[C@H]1C[C@H]2[C@@H]3CCC4=CC(=O)C=C[C@]4(C)[C@@]3(F)[C@@H](O)C[C@]2(C)[C@@]1(O)C(=O)CO [Betamethasone]
fold induction at 50 µM (E. faecium; [4]): 1.1 | fold induction at 50 µM [1, 5]: 0.9 | fold induction at 50 µM (E. cloacae; [6]): 1.3 | fold induction at 50 µM (E. coli; [7]): 1.1 | fold induction at 50 µM (K. pneumoniae; [8]): 0.9 | fold induction at 50 µM (P. aeruginosa; [9]): 1.1 | fold induction at 50 µM [2, 10]: 1.1

C=C1C/C(=C/C)C(=O)O[C@@H]2CCN3CC=C(COC(=O)[C@]1(C)O)[C@H]23 [Seneciphylline]
fold induction at 50 µM (E. faecium; planktonic E. faecium, […], read-out: AK-based Prestwick Library Screening Results, E. faecium (increase in extracellular AK activity)): 0.9 | fold induction at 50 µM ([1]; planktonic A. baumannii, […], read-out: AK-based Prestwick Library Screening Results, A. baumannii (increase in extracellular AK activity)): 0.8 | fold induction at 50 µM (E. cloacae; planktonic E. cloacae, […], read-out: AK-based Prestwick Library Screening Results, E. cloacae (increase in extracellular AK activity)): 1.2 | fold induction at 50 µM (E. coli; [7]): 0.9 | fold induction at 50 µM (K. pneumoniae; planktonic K. pneumoniae, […], read-out: AK-based Prestwick Library Screening Results, K. pneumoniae (increase in extracellular AK activity)): 0.7 | fold induction at 50 µM (P. aeruginosa; planktonic P. aeruginosa, […], read-out: AK-based Prestwick Library Screening Results, P. aeruginosa (increase in extracellular AK activity)): 0.8 | fold induction at 50 µM ([2]; planktonic S. aureus, […], read-out: AK-based Prestwick Library Screening Results, S. aureus (increase in extracellular AK activity)): 0.8

CC(=O)OCC(=O)[C@@]1(OC(C)=O)[C@@H](C)C[C@H]2[C@@H]3C[C@H](F)C4=CC(=O)C=C[C@]4(C)[C@@]3(F)[C@@H](O)C[C@@]21C [Diflorasone Diacetate]
fold induction at 50 µM (E. faecium; [11]): 1.1 | fold induction at 50 µM [1, 12]: 0.9 | fold induction at 50 µM (E. cloacae; [13]): 1.4 | fold induction at 50 µM (E. coli; [14]): 1.1 | fold induction at 50 µM (K. pneumoniae; [15]): 1 | fold induction at 50 µM (P. aeruginosa; [16]): 1 | fold induction at 50 µM [2, 17]: 1.1

CNCCC=C1c2ccccc2C=Cc2ccccc21 [Norcyclobenzaprine]
AK-based Prestwick Library Screening Results, E. faecium (increase in extracellular AK activity) (E. faecium; planktonic E. faecium, cutoff for positive-scoring molecules 3-fold increase): 0.8 | AK-based Prestwick Library Screening Results, A. baumannii (increase in extracellular AK activity) ([1]; planktonic A. baumannii, cutoff for positive-scoring molecules 3-fold increase): 1.1 | AK-based Prestwick Library Screening Results, E. cloacae (increase in extracellular AK activity) (E. cloacae; planktonic E. cloacae, cutoff for positive-scoring molecules 3-fold increase): 1.3 | AK-based Prestwick Library Screening Results, E. coli (increase in extracellular AK activity) (E. coli; planktonic E. coli, cutoff for positive-scoring molecules 3-fold increase): 6.3 | AK-based Prestwick Library Screening Results, K. pneumoniae (increase in extracellular AK activity) (K. pneumoniae; planktonic K. pneumoniae, cutoff for positive-scoring molecules 3-fold increase): 0.9 | AK-based Prestwick Library Screening Results, P. aeruginosa (increase in extracellular AK activity) (P. aeruginosa; planktonic P. aeruginosa, cutoff for positive-scoring molecules 3-fold increase): 1.0 | AK-based Prestwick Library Screening Results, S. aureus (increase in extracellular AK activity) ([2]; planktonic S. aureus, cutoff for positive-scoring molecules 3-fold increase): 0.6

Cc1cc(/C=C/c2ccc3cc(N(C)C)ccc3[n+]2C)c(C)n1-c1ccccc1 [Pyrvinium pamoate]
fold induction at 50 µM (E. faecium; [18]): 1.5 | fold induction at 50 µM [1, 19]: 0.9 | fold induction at 50 µM (E. cloacae; [20]): 13.2 | fold induction at 50 µM (E. coli; [21]): 0.8 | fold induction at 50 µM (K. pneumoniae; [22]): 0.8 | fold induction at 50 µM (P. aeruginosa; [23]): 0.7 | fold induction at 50 µM [2, 24]: 1.4

COc1cc(OC)c(C(=O)CCCN2CCCC2)c(OC)c1 [Buflomedil hydrochloride]
fold induction at 50 µM (E. faecium; [4]): 0.8 | fold induction at 50 µM [1, 5]: 0.7 | fold induction at 50 µM (E. cloacae; [6]): 0.9 | fold induction at 50 µM (E. coli; [25]): 0.8 | fold induction at 50 µM (K. pneumoniae; [8]): 0.6 | fold induction at 50 µM (P. aeruginosa; [9]): 0.8 | fold induction at 50 µM [2, 10]: 0.6

O=C(CCCN1CCN(c2ccccn2)CC1)c1ccc(F)cc1 [Azaperone]
fold induction at 50 µM (E. faecium; [18]): 1 | fold induction at 50 µM [1, 19]: 1.2 | fold induction at 50 µM (E. cloacae; [20]): 1.9 | fold induction at 50 µM (E. coli; [21]): 1.1 | fold induction at 50 µM (K. pneumoniae; [22]): 1 | fold induction at 50 µM (P. aeruginosa; [23]): 1 | fold induction at 50 µM [2, 24]: 1.2

O=C1C[C@@H](c2ccc(O)cc2)Oc2cc(O)cc(O)c21 [Naringenine]
fold induction at 50 µM (E. faecium; [11]): 0.9 | fold induction at 50 µM [1, 12]: 1.2 | fold induction at 50 µM (E. cloacae; [13]): 1.5 | fold induction at 50 µM (E. coli; [14]): 1.1 | fold induction at 50 µM (K. pneumoniae; [15]): 0.9 | fold induction at 50 µM (P. aeruginosa; [16]): 1 | fold induction at 50 µM [2, 17]: 0.5

COc1ccc2[nH]c([S+]([O-])Cc3ncc(C)c(OC)c3C)nc2c1 (stereo not drawn) [Omeprazole]
fold induction at 50 µM (E. faecium; [4]): 0.8 | fold induction at 50 µM [1, 5]: 0.8 | fold induction at 50 µM (E. cloacae; [6]): 0.8 | fold induction at 50 µM (E. coli; [25]): 0.7 | fold induction at 50 µM (K. pneumoniae; [8]): 0.6 | fold induction at 50 µM (P. aeruginosa; [9]): 0.6 | fold induction at 50 µM [2, 10]: 0.2

CSc1ccc2c(c1)C(N1CCN(C)CC1)Cc1ccccc1S2.O=C(O)/C=C\C(=O)O (stereo not drawn) [Methiothepin maleate]
AK-based Prestwick Library Screening Results, E. faecium (fold increase in extracellular AK activity) (E. faecium; [26]): 1.0 | AK-based Prestwick Library Screening Results, A. baumannii (fold increase in extracellular AK activity) [1, 26]: 1.5 | AK-based Prestwick Library Screening Results, E. cloacae (fold increase in extracellular AK activity) (E. cloacae; [26]): 1.8 | AK-based Prestwick Library Screening Results, E. coli (fold increase in extracellular AK activity) (E. coli; [26]): 1.4 | AK-based Prestwick Library Screening Results, K. pneumoniae (fold increase in extracellular AK activity) (K. pneumoniae; [26]): 1.3 | AK-based Prestwick Library Screening Results, P. aeruginosa (fold increase in extracellular AK activity) (P. aeruginosa; [26]): 1.1 | AK-based Prestwick Library Screening Results, S. aureus (fold increase in extracellular AK activity) [2, 26]: 1.3

COc1ccc2c(c1OC)CN1CCc3cc4c(cc3C1C2)OCO4 (stereo not drawn) [(d,l)-Tetrahydroberberine]
AK-based Prestwick Library Screening Results, E. faecium (fold increase in extracellular AK activity) (E. faecium; planktonic, […]): 0.9 | AK-based Prestwick Library Screening Results, A. baumannii (fold increase in extracellular AK activity) ([1]; planktonic, […]): 0.9 | AK-based Prestwick Library Screening Results, E. cloacae (fold increase in extracellular AK activity) (E. cloacae; planktonic, […]): 1.3 | AK-based Prestwick Library Screening Results, E. coli (fold increase in extracellular AK activity) (E. coli; planktonic, […]): 0.8 | AK-based Prestwick Library Screening Results, K. pneumoniae (fold increase in extracellular AK activity) (K. pneumoniae; planktonic, […]): 0.7 | AK-based Prestwick Library Screening Results, P. aeruginosa (fold increase in extracellular AK activity) (P. aeruginosa; planktonic, […]): 0.8 | AK-based Prestwick Library Screening Results, S. aureus (fold increase in extracellular AK activity) ([2]; planktonic, […]): 0.7
